The text below walks through data of patent publication US20240317711A1, “AURKA SELECTIVE DEGRADATION INDUCING COMPOUND” (UPPTHERA INC., priority 2021, published 2024).

The target of the assay is T1, AURKA (Homo sapiens, UniProt O14965).
T1 construct: An MDA-MB-231 cell line was purchased from the Korea Cell Line Bank; endogenous in cells; host or cells: MDA-MB-231
T1 sequence (O14965 1-403): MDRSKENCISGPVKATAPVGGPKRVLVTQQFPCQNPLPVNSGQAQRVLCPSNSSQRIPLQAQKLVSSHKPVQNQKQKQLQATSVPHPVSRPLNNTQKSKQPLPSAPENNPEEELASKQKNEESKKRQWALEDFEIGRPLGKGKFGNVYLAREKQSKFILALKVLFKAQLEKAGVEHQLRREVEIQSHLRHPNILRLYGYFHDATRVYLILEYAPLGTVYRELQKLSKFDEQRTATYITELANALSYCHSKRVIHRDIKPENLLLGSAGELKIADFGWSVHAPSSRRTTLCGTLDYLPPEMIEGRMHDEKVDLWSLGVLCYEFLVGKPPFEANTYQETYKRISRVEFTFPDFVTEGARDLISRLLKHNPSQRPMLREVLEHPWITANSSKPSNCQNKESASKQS
The assay can be described thus: Western blotting of AURKA degradation after 24 hours of compound treatment of MDA-MB-231 cell line. In kind it is cell-based. The following applies: compound 0.1 μM, MDA-MB-231 cells, Western blot. The text has this:
An MDA-MB-231 cell line was purchased from the Korea Cell Line Bank. The passage of cultured cells was maintained within P50.
For cell counting, a cell counter (Catalog #AMQAX1000) from Thermo and a 0.4% Trypan blue solution were used.
For cell culture, there were used RPMI (Gibco, Cat. No. 22400-089; Lot. No. 2323633), FBS (Gibco, Cat. No. 16000044; Lot. No. 2454168P), Penicillin/Streptomycin (PS) (Gibco, Cat. No. 15140-122; Lot. No. 2321150), 100 mm culture plate (SPL, Cat. No. 20100), 6-well culture plate (SPL, Cat. No. 30006), PBS pH7.4 (Gibco, Cat. No. 10010-023; Lot. No. 2380329), counting chamber (Hematocytometer) (Hirschmann, Cat. No. 8100204), and 0.4% trypan blue solution (DYNEBIO, Cat. No. CBT3710; Lot. No. 20211201).
3×10^5 cells were seeded in each well of a 12-well plate (SPL), and the cells were cultured in a total culture medium volume of 1 mL. […]
Next, a standard curve was obtained using the BCA assay and the protein mass in the lysate was quantified by substituting the obtained standard curve. The mixture was incubated at 37° C. for 30 minutes using 20 μL of a standard or sample solution and 200 μL of a BCA or Bradford solution, and absorbance was measured at 562 nm. […]
(In general: A western blot detects proteins with antibodies after separation by electrophoresis.)

Take `O=C1CCC(N2C(=O)c3cccc(NCCCCCCN4CCN(C(=O)Cc5ccc(Nc6ncc(F)c(Nc7ccc(C(=O)Nc8ccccc8Cl)cc7)n6)cc5)CC4)c3C2=O)C(=O)N1` (stereo not shown) [Compound 14]: the “AURKA protein degradation activity” value is listed as no less than 95%.
